Data from patent US9777005B2 (Takeda Pharmaceutical Company Limited, priority 2012, dated 2017).

Target: T1, human M1 receptor (hCHRM1) (Homo sapiens, UniProt P11229)
T1 construct: expressed in transfected cells; host or cells: CHO-K1
T1 sequence (P11229 1-460): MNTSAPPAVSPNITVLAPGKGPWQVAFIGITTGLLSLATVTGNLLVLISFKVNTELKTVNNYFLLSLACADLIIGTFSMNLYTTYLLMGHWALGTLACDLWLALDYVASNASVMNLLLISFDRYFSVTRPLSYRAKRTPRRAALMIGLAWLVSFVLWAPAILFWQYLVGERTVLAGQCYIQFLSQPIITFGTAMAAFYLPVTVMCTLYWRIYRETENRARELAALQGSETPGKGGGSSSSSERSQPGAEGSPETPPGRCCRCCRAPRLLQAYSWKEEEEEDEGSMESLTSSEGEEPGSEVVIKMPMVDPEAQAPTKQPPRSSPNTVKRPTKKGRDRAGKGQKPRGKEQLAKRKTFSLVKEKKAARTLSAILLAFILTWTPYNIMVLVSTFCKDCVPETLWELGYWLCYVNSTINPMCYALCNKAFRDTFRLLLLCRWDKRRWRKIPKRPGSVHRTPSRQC
Assay: Measurement of M1 receptor positive allosteric modulator (M1PAM) activity, calcium fluorescence (FLIPRtetra) in CHO-K1 cells in the presence of acetylcholine at EC20
Assay type: cell-based
Conditions: in the presence of acetylcholine at EC20 (final 0.6 nM), CHO-K1 cells expressing hCHRM1; for EC50: inflection point of M1PAM activity, read-out: IP value; for activity (%) at 10 μM: test compound 10 μM
Method: Measurement of M1 Receptor Positive Allosteric Modulator (M1PAM) Activity
The activity of a test compound in the presence of acetylcholine at EC20 concentration (final concentration 0.6 nM), which affords an action corresponding to 20% of the maximum activity, was measured as PAM activity. The method is as follows. CHO-K1 cells forcibly expressing a human M1 receptor (hCHRM1) were plated on a 384-well black clear bottom plate (BD Falcon) at 5,000 cells/well, and cultured in an incubator at 37° C., 5% CO2 for 1 day. The medium in the cell plate was removed, and assay buffer A (Recording medium (DOJINDO LABORATORIES), 0.1% BSA (Wako Pure Chemical Industries, Ltd.), 2.5 μg/mL Fluo-4 AM (DOJINDO LABORATORIES), 0.08% Pluronic F127 (DOJINDO LABORATORIES), 1.25 mM probenecid (DOJINDO LABORATORIES)) containing a calcium indicator was added at 30 μL/well. The cells were left standing in the incubator at 37° C., 5% CO2 for 30 min, and further left standing at room temperature for 30 min. A test compound prepared by diluting with assay buffer B (HBSS (Invitrogen), 20 mM HEPES (Invitrogen), 0.1% BSA) containing 2.4 nM acetylcholine was added at 10 μL/well, and the fluorescence was measured by FLIPRtetra (Molecular Devices) for 1 min every 1 second. With the definition that the amount of change in the fluorescence on addition of acetylcholine (final concentration 1 μM) is 100% and that on addition of DMSO instead of a test compound is 0%, the activity (%) of the test compound and the inflection point in the concentration-dependent curve of the test compound were calculated as IP values.

Row | SMILES | EC50 [nM] | activity (%) at 10 μM [%]
1 | Cn1ccc(-c2ccc(CN3Cc4ncnc(Oc5ccc(C(F)F)cc5F)c4C3=O)cc2)n1 [Example 310, 4-(4-(difluoromethyl)-2-fluorophenoxy)-6-(4-(1-methyl-1H-pyrazol-3-yl)benzyl)-6,7-dihydro-5H-pyrrolo[3,4-d]pyrimidin-5-one] | 30 | 105
2 | Cn1cc(-c2ccc(CN3Cc4ccnc(OCC5CCCO5)c4C3=O)cc2)cn1 (stereo not drawn) [Example 285] | 10 | 95
3 | CNC(=O)c1ccc(CN2Cc3ccnc(Oc4ccc(C(F)(F)F)cc4F)c3C2=O)cn1 [Example 456, 5-((4-(2-fluoro-4-(trifluoromethyl)phenoxy)-3-oxo-1,3-dihydro-2H-pyrrolo[3,4-c]pyridin-2-yl)methyl)-N-methylpyridine-2-carboxamide] | 46 | 91
4 | CCc1cc(F)c(Oc2nccc3c2C(=O)N(Cc2ccc(-n4cnc(C)c4)cc2)C3)c(F)c1 [Example 429, 4-(4-ethyl-2,6-difluorophenoxy)-2-(4-(4-methyl-1H-imidazol-1-yl)benzyl)-1,2-dihydro-3H-pyrrolo[3,4-c]pyridin-3-one] | 11 | 109
5 | Cn1ccc(-c2ccc(CN3Cc4ccnc(Oc5c(F)cc(C#N)cc5F)c4C3=O)cc2)n1 [Example 375, 3,5-difluoro-4-((2-(4-(1-methyl-1H-pyrazol-3-yl)benzyl)-3-oxo-2,3-dihydro-1H-pyrrolo[3,4-c]pyridin-4-yl)oxy)benzonitrile] | 10 | 99
6 | Cn1cc(-c2ccc(CN3Cc4ccnc(Oc5ccc(C(O)C(F)(F)F)cc5F)c4C3=O)cc2)cn1 (stereo not drawn) [Example 393, 4-(2-fluoro-4-(2,2,2-trifluoro-1-hydroxyethyl)phenoxy)-2-(4-(1-methyl-1H-pyrazol-4-yl)benzyl)-1,2-dihydro-3H-pyrrolo[3,4-c]pyridin-3-one] | 5 | 89

Second part, the compound after the results:

Row | EC50 [nM] | activity (%) at 10 μM [%] | SMILES
7 | 9.1 | 104 | O=C1c2c(ccnc2O[C@@H]2CCCC[C@H]2O)CN1Cc1cc(F)ccc1F (single isomer, unassigned) [Example 319, 2-(2,5-difluorobenzyl)-4-((trans-2-hydroxycyclohexyl)oxy)-1,2-dihydro-3H-pyrrolo[3,4-c]pyridin-3-one]
8 | 120 | 89 | O=C1c2c(cccc2O[C@@H]2COCC[C@H]2O)CN1Cc1ccc(F)cc1F (single isomer, unassigned) [Example 301, 1,5-anhydro-2-deoxy-4-O-(2-(2,4-difluorobenzyl)-3-oxo-2,3-dihydro-1H-isoindol-4-yl)-threo-pentitol]
9 | 53 | 87 | CCn1cc(-c2ccc(CN3Cc4ccnc(OC5CCC5)c4C3=O)cc2)cn1 [Example 404, 4-(cyclobutyloxy)-2-(4-(1-ethyl-1H-pyrazol-4-yl)benzyl)-1,2-dihydro-3H-pyrrolo[3,4-c]pyridin-3-one]
10 | 70 | 100 | Cc1ccc(Oc2nccc3c2C(=O)N(Cc2ccc(C(N)=O)c(F)c2)C3)c(F)c1 [Example 440, 2-fluoro-4-((4-(2-fluoro-4-methylphenoxy)-3-oxo-1,3-dihydro-2H-pyrrolo[3,4-c]pyridin-2-yl)methyl)benzamide]
11 | 73 | 96 | Cn1ccc(-c2ccc(CN3Cc4ccnc(OCc5ccccc5F)c4C3=O)c(F)c2)n1 [Example 342, 4-((2-fluorobenzyl)oxy)-2-(2-fluoro-4-(1-methyl-1H-pyrazol-3-yl)benzyl)-1,2-dihydro-3H-pyrrolo[3,4-c]pyridin-3-one]
12 | 46 | 97 | Cc1cc(-c2ccc(CN3Cc4cccc(OCC5CCCO5)c4C3=O)cc2)ccn1.Cl (stereo not drawn) [Example 353, 2-(4-(2-methylpyridin-4-yl)benzyl)-7-((tetrahydrofuran-2-yl)methoxy)isoindolin-1-one hydrochloride]
